Several values for one entry are separate records, joined by “and”; a condition that tells them apart may be missing. Identical values can stand only once.
What was measured:
[1] = Clinical study: fasting serum insulin and plasma glucose; format: in vivo, patients; conditions: for P-glucose, At 12 months / S-insulin, At 12 months / S-insulin/P-glucose, At 12 months: at 12 months of treatment; for P-glucose, At 12 months / S-insulin, At 12 months / P-glucose, Baseline / S-insulin, Baseline: fasting; for P-glucose, At 12 months / S-insulin, At 12 months / S-insulin/P-glucose, At 12 months / P-glucose, Baseline / S-insulin, Baseline / S-insulin/P-glucose, Baseline / P-glucose, Mean change at 12 months / S-insulin, Mean change at 12 months / S-insulin/P-glucose, Mean change at 12 months: mean (SD); for P-glucose, Baseline / S-insulin, Baseline / S-insulin/P-glucose, Baseline: baseline (before randomised treatment); for P-glucose, Mean change at 12 months / S-insulin, Mean change at 12 months / S-insulin/P-glucose, Mean change at 12 months: change from baseline to 12 months; for Fasting levels of both serum insulin and plasma glucose during treatment: result in words, 12 months treatment
Method: The fasting plasma glucose level is defined as the concentration of glucose in the plasma of a subject after an overnight's fast. Patients were instructed not to eat breakfast on the morning of the follow-up visits.
(§1) A clinical study was performed. It was a study with a double-blind, randomised, controlled, parallel group design.
(§2) After four weeks of single-blind treatment with placebo, the patients were randomised to double-blind treatment with either candesartan cilexetil 16 mg or hydrochlorothiazide 25 mg and followed for one year. If sitting systolic or diastolic blood pressure was above target pressure (<130/<85 mmHg, for patients below 65 years, or <140/<90 mmHg, if 65 years or older) [1999 World Health Organization (WHO)—International Society of Hypertension Guidelines for the Management of Hypertension. Journal of Hypertension 1999; 17; 151-83] at any visit during the treatment period, double-blind treatment with felodipine extended-release 2.5-5.0 mg was added to the candesartan group and atenolol 50-100 mg was added to the hydrochlorothiazide group. No further antihypertensive treatment was allowed. Two patients were withdrawn from the study, both in the candesartan cilexetil group, since their blood pressure exceeded the pre-specified safety level (≧180 and/or ≧105 mm Hg, mean of two recordings at different visits).
Analyses of plasma glucose were carried out at the Department of Clinical Chemistry, Umeå University Hospital. Plasma glucose was routinely analysed by Vitros 950 glucose oxidase method (Ortho Clinical Diagnostics).
(§3) Efficacy variables were analysed using analysis of covariance (ANCOVA) with treatment and health centre as factors and baseline value as covariate. Difference in treatment effect was estimated with 95% confidence interval. To test difference between treatments in change of biochemistry variables the Wilcoxon Rank Sum test was used. […] In this approach all randomised patients who had completed the study and had taken at least one dose of study drug were included.

[2] = Clinical study: plasma triglycerides; format: in vivo; conditions: individual patients of the candesartan cilexetil group with metabolic syndrome at baseline but not after 12 months
Method: as §1
After four weeks of single-blind treatment with placebo, the patients were randomised to double-blind treatment with either candesartan cilexetil 16 mg or hydrochlorothiazide 25 mg and followed for one year. If sitting systolic or diastolic blood pressure was above target pressure (<130/<85 mmHg, for patients below 65 years, or <140/<90 mmHg, if 65 years or older) [1999 World Health Organization (WHO)—International Society of Hypertension Guidelines for the Management of Hypertension. […]
Total plasma cholesterol, LDL-cholesterol, HDL-cholesterol and triglycerides were determined in all patients at randomisation (n=392), and in most patients after six months (n=354), and after 12 months (n=352). Total plasma cholesterol and triglycerides concentrations were determined enzymatically. HDL-cholesterol was measured after the precipitation of apolipoprotein B-containing lipoproteins in whole plasma by heparin-manganese chloride [Lipid Research Clinics Program: Manual of Laboratory Operations, Bethesda, Md.: National Institutes of Health, Vol 1. […] Their LDL cholesterol levels were not calculated.

[3] = Double-blind randomised clinical study: sitting blood pressure and heart rate; format: in vivo, patients; conditions: for patients who attained a blood pressure <140/<90 mm Hg: after one year; for SBP, mean change / DBP, mean change / Heart rate, mean change: sitting, mean (SD)
Method: as §1
For inclusion, sitting blood pressure should be in the range of 140-179 and/or 90-104 mm Hg (mean of two measurements according to standardised procedures [1999 World Health Organization (WHO)—International Society of Hypertension Guidelines for the Management of Hypertension. Journal of Hypertension 1999; 17; 151-83] and at two visits) on placebo treatment and after the patients had been subjected to non-pharmacological treatment, as recommended [The Swedish Council on Technology Assessment in Health Care (SBU). Moderately elevated blood pressure. J Intern Med 1995; 238(Suppl 737): S1-S128; 1999 World Health Organization (WHO)—International Society of Hypertension Guidelines for the Management of Hypertension. Journal of Hypertension 1999; 17; 151-83] for one month or longer. Since the non-pharmacological intervention had been introduced before the start of the study and then maintained, its effect on metabolic variables during the study was minimal.
as §2, §3

[4] = Clinical study: metabolic syndrome diagnosed according to WHO criteria; format: in vivo, patients; conditions: n = 196 per group
Method: as §1, §2
The metabolic syndrome was diagnosed according to the following criteria [World Health Organization (WHO). Department of Noncommunicable Disease Surveillance. Geneva: WHO 1999 pp 1-59]: • 1. Fasting plasma glucose above 6.1 mmol/L • 2. Blood pressure above 140/90 mm Hg • 3. One or more of the following: • a. plasma triglycerides above 1.7 mmol/L and/or HDL below 0.9 mmol/L (men), below 1.0 mmol/L (women) • b. Body mass index above 30 kg/m^2 Statistical Analyses

[5] = at 6 months, hypertensive patients, candesartan cilexetil 16 mg (+ felodipine if needed) or HCTZ 25 mg (+ atenolol if needed)

| SMILES | P-glucose, At 12 months [1] | S-insulin, At 12 months [1] | S-insulin/P-glucose, At 12 months [1] | P-glucose, Baseline [1] | S-insulin, Baseline [1] | S-insulin/P-glucose, Baseline [1] | P-glucose, Mean change at 12 months [1] | S-insulin, Mean change at 12 months [1] | S-insulin/P-glucose, Mean change at 12 months [1] | Fasting levels of both serum insulin and plasma glucose during treatment [1] | patients who attained a blood pressure <140/<90 mm Hg [3] [%] | SBP, mean change [3, 5] | DBP, mean change ([3]; at 6 months, same regimens) | Heart rate, mean change ([3]; at 6 months, same regimens) | DBP, mean change ([3]; at 12 months, same regimens) | Heart rate, mean change ([3]; at 12 months, same regimens) | SBP, mean change ([3]; at 12 months, same regimens) | patients suffering from the metabolic syndrome as defined by WHO ([4]; at base-line) [patients] | further results |
| --- | --- | --- | --- | --- | --- | --- | --- | --- | --- | --- | --- | --- | --- | --- | --- | --- | --- | --- | --- |
| CCOc1nc2cccc(C(=O)OC(C)OC(=O)OC3CCCCC3)c2n1Cc1ccc(-c2ccccc2-c2nn[nH]n2)cc1 (centres unmarked) [Candesartan cilexetil, candesartan cilexetil] | 5.10 (0.57) mmol/L | 8.96 (5.42) mlU/L | 1.76 (1.06) | 5.17 (0.58) mmol/L | 9.25 (7.90) mlU/L | 1.77 (1.38) | −0.06 (0.46) mmol/L | −0.30 (6.50) mlU/L | −0.00 (1.23) | unaffected | 65 | −20.9 (13.1) mm Hg | −12.8 (6.9) mm Hg | −2.1 (8.4) bpm | −13.0 (7.4) mm Hg | −2.2 (8.4) bpm | −21.0 (15.2) mm Hg | 13 | Fasting glucose, 12 months ([1]; individual patients 1-8 of the candesartan cilexetil group with metabolic syndrome at baseline but not after 12 months, after 12 months): 5.5 mmol/L and 5.7 mmol/L (2×) and 5.6 mmol/L and 5.2 mmol/L and 6.0 mmol/L and 5.9 mmol/L; Fasting glucose, Baseline ([1]; individual patients 1-8 of the candesartan cilexetil group with metabolic syndrome at baseline but not after 12 months, baseline): 6.1 mmol/L and 6.5 mmol/L and 6.2 mmol/L (4×) and 6.4 mmol/L; Triglycerides, 12 months ([2]; after 12 months): 1.59 mmol/L and 1.44 mmol/L and 1.28 mmol/L; Triglycerides, Baseline ([2]; baseline): 2.15 mmol/L and 2.34 mmol/L and 2.65 mmol/L |
| NS(=O)(=O)c1cc2c(cc1Cl)NCNS2(=O)=O [HCTZ, hydrochlorothiazide] | 5.42 (0.89) mmol/L | 11.00 (6.88) mlU/L | 2.03 (1.23) | 5.29 (0.98) mmol/L | 9.65 (6.09) mlU/L | 1.83 (1.10) | 0.13 (0.69) mmol/L | 1.35 (6.09) mlU/L | 0.20 (1.13) | increased | 62 | −23.9 (13.0) mm Hg | −13.9 (7.1) mm Hg | −6.8 (10.1) bpm | −12.9 (7.7) mm Hg | −7.3 (9.4) bpm | −22.8 (14.9) mm Hg | 12 | patients suffering from the metabolic syndrome as defined by WHO ([4]; at 12 months, p=0.007 between groups): 18 patients |
